Measurements reported in patent US20050176691A1, “Combination therapy for the treatment of estrogen-sensitive disease” (priority 2000, published 2005).
Read-outs that look alike come from different tables or passages of the source. Each block holds one molecule with its values, some of them ahead of it.

What was measured:
[1] = test system: estrogen receptor / enzyme (primary endocrine mechanism); experiment: Endocrine effect
[2] = Excretion characteristics; details: in vivo
[3] = test system: plasma protein; experiment: Distribution: plasma protein binding; assay type: in vitro ADME
[4] = Other effects on ADME or PK (patient factors); details: in vivo
[5] = Absorption characteristics; details: in vivo
[6] = Pharmacokinetic profile; assay type: in vivo
[7] = test system: primary metabolizing enzyme(s); experiment: Metabolism characteristics; assay type: in vitro ADME
[8] = during combination therapy with tamoxifen; persisted during months; cited from earlier work

direct inhibition of primary mechanism by combination drug [1]: no
feedback stimulation on combination drug's primary mechanism [1]: yes
enterohepatic circulation [2]: yes
primary route of elimination [2]: fecal
enterohepatic circulation ([2]; listed as toremifene): subject to enterohepatic circulation
principal plasma binding protein(s) [3]: albumin
fraction unbound ([3]; plasma): < 0.005
effect of race of patient on ADME or PK [4]: unexpected
effect of sex of patient on ADME or PK [4]: no known effect
Absorption: influenced by food [5]: no
Absorption: route [5]: oral
overall time to steady state ([6]; in vivo): 4-6 weeks
half-life ([6]; in vivo, read-out: distribution t1/2 (time) (converted)): 4 h
half-life ([6]; in vivo, read-out: elimination t1/2 (time) (converted)): 120 h
clearance ([6]; in vivo, read-out: total clearance (volume/unit time) (converted)): 83.3 mL/min
Tmax ([6]; plasma, oral): 3 h
induction of primary metabolizing enzyme [7]: no
plasma levels affected by known inducers of cytochrome p-450 enzyme system [7]: yes
primary enzyme(s) of metabolism [7]: CYP3A4
primary metabolite active [7]: yes
significant pre-systemic metabolism [7]: no
SMILES: CN(C)CCOc1ccc(/C(=C(/CCCl)c2ccccc2)c2ccccc2)cc1 [Toremifene, (Z)-2-[4-(4-chloro-1,2-diphenyl-1-butenyl)phenoxy]-N,N-dimethylethanamine]

SMILES: N#Cc1ccc(C(c2ccc(C#N)cc2)n2cncn2)cc1 [letrozole, 4,4′-(1H-1,2,4-triazol-1-ylmethylene)bis-benzonitrile]
mean reduction of plasma levels of letrozole vs single agent letrozole [8]: 37%
